Data from patent US20250186396A1, “COMPOSITIONS AND METHODS FOR THE TREATMENT OF GLIOBLASTOMA WITH A DUAL TARGETING ANTI-TUMOR COMPOSITION” (Northwestern University, priority 2023, published 2025).

Key:
CT2A tumors [1] = experiment: Flow cytometry of tumor-derived immune cells, CT2A tumors; assay type: in vivo, C57BL/6 mice; settings: for CD45+CD3+CD8+CD69+ activated T cells / CD45+CD3+CD8+IFN-γ+ activated T cells: CT2A tumors
Description: (§1) Mice and Intracranial Xenograft Tumor Models. Female C57BL/6 mice at 3 to 4 weeks of age were purchased from the Jackson Laboratory (#0000664). All animals were grouped by 5 mice per cage and maintained in IVC System (San Diego, CA) for a week before the experiment. All animal experiments were performed with the approval of the Institutional Animal Care and Use Committee (IACUC) at Northwestern University. The intracranial xenograft tumor models were established previously. In brief, mice were anesthetized by isoflurane through IMPAC6 Anesthesia System. Then a dental drill was used to open a small hole in the skull of mice 1.2 mm anterior and 3.0 mm lateral to the bregma. Mice were placed into the stereotactic apparatus, and 5 μL 005 GSC, CT2A, or GL261 cells in FBS-free culture medium were injected into the right caudate nucleus 3 mm below the surface of the brain using a 10 μL Hamilton syringe with an unbeveled 30-gauge needle. The incision was closed using Vetbond glue. Meloxicam (20 mg/kg, daily) was subcutaneously injected for pain relief for 3 days after surgery. Mice received the treatment with BAPN (2 g/L in drinking water) on day 4, SR9009 (100 mg/kg body weight, i.p.) daily for 10 days beginning at day 7 post-orthotopic injection, anti-PD1 (10 mg/kg body weight, i.p.) on days 11, 14, and 17 post-orthotopic injection, and/or clodronate liposomes (200 μL, once every 3 days) starting at day 4 post-orthotopic injection. Mice with neurological deficits or moribund appearance were sacrificed according to the IACUC protocol. At the end of the experiment, the brains of mice were collected, either fixed in 4% paraformaldehyde (PFA) (ThermoFisher Scientific, #J61899.AK) after transcardiac perfusion with PBS for optimal cutting temperature (OCT)-cryosectioning or processed using the percoll density gradient cell separation method to isolate tumor-derived immune cells for flow cytometry analysis.
Tumor-derived immune cells isolation. Mice with neurologic deficits or moribund appearance were sacrificed to harvest their brains. Immune cells in the brain tumors were isolated using the percoll density gradient cell separation method as previously described. In brief, after perfusion with PBS, brains were homogenized on ice with pre-cold 10 mL HBSS. Then cells were spun down at 1,500 rpm for 10 minutes at 4° C., and were resuspended in 30% Percoll (GE Healthcare, #17-0891-01). The solution was gently laid on top of the 70% Percoll and centrifuged at 1,200 g for 30 minutes at 4° C. with accelerator 7 and breaker 0. After removing myelin and debris, the interphase was collected and centrifuged at 1,500 rpm for 10 minutes at 4° C. The cell pellet was resuspended for further analysis.
Flow cytometry. The single-cell suspensions were incubated with fixable viability dye (Invitrogen, #5211229035) on ice for 10 minutes. After washing with FACS buffer, cells were incubated with the TruStain FcX (anti-mouse CD16/32) Antibody (BioLegend, #103132) and True-Stain Monocyte Blocker (BioLegend, #426102) in 5% BSA for 30 minutes on ice to block Fc receptors and non-specific binding of the cyanine acceptor fluorophores. Different antibody cocktails, including Percp/Cy5.5 anti-mouse CD45 (BioLegend, […]), AF488 anti-mouse CD3 (BioLegend, #100210), BV711 anti-mouse CD8 (BioLegend, #100747), PE/Cy7 anti-mouse CD69 (BioLegend, #104512), APC/Cy7 anti-mouse IFN-γ (BioLegend, #505850), PE/Cy7 anti-mouse/human CD11b (BioLegend, #101216), PE anti-mouse CD68 (BD Bioscience, #566386), and BV421 anti-mouse CX3CR1 (BD Bioscience, #567531) were added to the samples and incubated for 30 minutes on ice. After washing with FACS buffer, cells were incubated with fixation buffer (BioLegend, #420801) overnight. Samples were read through the BD FACSymphony or BD LSRFortessa flow cytometer and analyzed in FlowJo v10.8.1.

CT2A tumors [2] = experiment: Immunofluorescence staining of CT2A tumors; assay type: in vivo, C57BL/6 mice; settings: for intratumoral CD4+ T cells / intratumoral CD8+ T cells / intratumoral activated CD8+ (CD8+CD69+) T cells: CT2A model, BAPN 2 g/L in drinking water from day 4, SR9009 100 mg/kg i.p. daily for 10 days from day 7; for CX3CR1+ microglia in tumors / F4/80+ macrophages in tumors: CT2A tumors vs control, BAPN 2 g/L drinking water or SR9009 100 mg/kg i.p. daily 10 days
Description: as §1
Immunofluorescence. Immunofluorescence was performed using a standard protocol that was previously established. In brief, slides from cryosections were kept at room temperature for 30 minutes and fixed in 10% PFA for 30 minutes prior to permeabilization. Then, 0.25% Triton X-100 in PBS was added for 30 minutes at room temperature to permeabilize the cell membrane. After three times PBS washing, sections were blocked by 5% goat serum for 30 minutes. Specimens were incubated with primary antibody for 1 hour at room temperature and then overnight at 4° C. Then, the unbound primary antibodies were washed out by three times PBS for 3 minutes each and corresponding secondary antibody cocktails were prepared and added to the sections for 1 hour incubation. Cell nuclear was counterstained with DAPI/anti-fade mounting medium (Vector Laboratories, #H-1200-10). Immunofluorescence images were captured using Nikon AX/AX R Confocal Microscope System with an apo 60 1.40 Oil 160/0.17 objective in the Center for Advanced Microscopy (CAM) at Northwestern University. The relative intensity of the protein signal was determined by Image J. For one slide, 3-5 fields of images were captured randomly, and the intensity of the protein signal was determined by Image J. The average quantified value of these 3-5 fields was represented as the protein signal intensity of one sample and presented as the individual point in the bar graph. Antibodies specific to CD8 (Invitrogen, #PA5-81344), CD69 (Santa Cruz Biotechnology, #sc-373799), CX3CR1 (Invitrogen, #702321), F4/80 (Cell Signaling Technology, #30325S), OLFML3 (Invitrogen, #702321), Ki67 (Cell Signaling Technology, #9129S), and CC3 (Cell Signaling Technology, #9661S) were used.

[3] = size matched CT2A tumors, BAPN 2 g/L in drinking water

Row | SMILES | CD45+CD3+CD8+CD69+ activated T cells (CT2A tumors [1]) | CD45+CD3+CD8+IFN-γ+ activated T cells (CT2A tumors [1]) | CD45highCD11b+CD68+ macrophages (CT2A tumors [1]; [3]) | CD45lowCD11b+CX3CR1+ microglia (CT2A tumors [1]; [3]) | intratumoral CD4+ T cells (CT2A tumors [2]) | intratumoral CD8+ T cells (CT2A tumors [2]) | intratumoral activated CD8+ (CD8+CD69+) T cells (CT2A tumors [2]) | CX3CR1+ microglia in tumors (CT2A tumors [2]) | F4/80+ macrophages in tumors (CT2A tumors [2])
1 | N#CCCN [BAPN, β-aminopropionitrile] | Increases | Increases | decreased | increased | increased | increased | increased | higher | lower
2 | CCOC(=O)N1CCC(CN(Cc2ccc(Cl)cc2)Cc2ccc([N+](=O)[O-])s2)C1 (stereo not shown) [SR9009] | Increases | Increases |  |  | increased | increased | increased | reduced | did not affect
